Experimental data published in patent US10350257B2, “Pharmaceutical composition containing complex extract of Crataegi fructus and Citri pericarpium as an active ingredient for treating or preventing obesity or lipid-related metabolic diseases” (NEUMED, priority 2012, dated 2019).
Marks after values point to notes of the source that are not given here.

Assays:
[1] = tested on: diet-induced obesity (DIO) white rat models; assay: Blood triglyceride and total cholesterol in serum of high-fat diet obese animal models after 8 weeks; format: in vivo, Sprague-Dawley male white rats; conditions: serum after 8 weeks; high-fat diet rats; extracts 100 mg/kg, HCA 390 mg/kg oral twice a day
Method: (§1) Animal experiments were performed on Sprague-Dawley ([…] BIO Korea) male white rats weighing 80 to 100 g. 3. Selection of Experimental Groups • Normal group (AIN-93G, Normal diet+fed with secondary distilled water); • Control group (60% Kcal high-fat diet+fed with secondary distilled water); • Positive control group (60% Kcal high-fat diet+administered with 390 mg/kg of […] Fructus extract-administered group (high-fat diet+administered with 100 mg/kg of […] Fructus extract of Comparative Example 1); • Citri Pericarpium extract-administered group (high-fat diet+administered with 100 mg/kg of the Citri Pericarpium extract of Comparative Example 2); and • Complex extract-administered group (high-fat diet+administered with 100 mg/kg of the complex extract of Example 1 or 2). The temperature was 22±2° C., the relative humidity was 50±10%, and the dark-light cycle (light on at 07:00 light off at 19:00) was controlled with fluorescent lighting. […] Moreover, all the experimental groups were sacrificed after 8 weeks to collect blood samples, serums were separated from the blood samples, and the blood triglyceride (mg/dL) and the total cholesterol (mg/dL) were analyzed using a biochemical analyzer ([…], USA).

[2] = tested on: diet-induced obesity (DIO) white rat models; assay: Body weight gain in high-fat diet obese animal models (8 weeks); format: in vivo, Sprague-Dawley male white rats; conditions: oral twice a day for 8 weeks, extracts 100 mg/kg, HCA 390 mg/kg
Method: as §1

[3] = 1,500 mg HCA daily, 12-week clinical trial; cited from earlier work
[4] = about 3 g daily, after 3 months, clinical trials; cited from earlier work

Molecule	Total cholesterol [1] [mg/dL]	Total triglyceride [1] [mg/dL]	Body weight gain ([2]; 60% Kcal high-fat diet rats, mean±SD) [g]	Reduction in rate of body weight gain ([2]; vs high-fat diet control group)	Weight loss effect compared to the placebo group [3]	Average body weight lost [4] [kg]	Body fat reduced [4] [%]
O=C(O)CC(O)(C(=O)O)C(O)C(=O)O (stereo not shown) [HCA, hydroxycitrate]	59.8 ± 11.2	134.2 ± 21.3	333.2 ± 12.2	7.3* %	no weight loss effect		
conjugated linoleic acid						2.5	15 to 20
